These results are taken from publication PMC4119598 (Journal of natural products, 2013).

One data set deals with P. berghei LS parasites. Briefly: Immunofluorescence analysis. It counts as cell-based, Plasmodium berghei. The settings on record: 10 μM, 48 h post-infection.
Another data set addresses MtFabI (Mycobacterium tuberculosis, UniProt P9WGR1). Briefly: FabI enzyme inhibition assay MtFabI. In kind it is biochemical, M. tuberculosis.
Data set [1] relates to fabp10a:DsRed2 zebrafish larvae. The data set is described as follows: In vivo hepatotoxicity in fabp10a:DsRed2 zebrafish larvae. The settings on record: for liver phenotype (Figure 3): 6 dpf after 3 days of exposure at MTC (60.2 μM of 1, 15.5 μM of 2, 0.3 μM of 4). Also on record: species or system zebrafish (Brachydanio rerio).
The subject of another data set is BS of Plasmodium. The settings on record: read-out: BS IC50 (reported); cited from earlier work.

Some results are limits rather than exact numbers.

Sequence of MtFabI (P9WGR1 whole entry, looked up): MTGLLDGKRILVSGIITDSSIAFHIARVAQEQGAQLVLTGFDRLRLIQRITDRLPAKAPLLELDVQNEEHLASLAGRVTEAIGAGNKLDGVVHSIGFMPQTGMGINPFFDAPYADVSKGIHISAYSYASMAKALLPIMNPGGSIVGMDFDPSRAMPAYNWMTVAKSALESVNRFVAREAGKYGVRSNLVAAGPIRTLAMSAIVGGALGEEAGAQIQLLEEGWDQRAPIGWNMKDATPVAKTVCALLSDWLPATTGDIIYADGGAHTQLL

With `COc1cc(C)c(C(=O)Oc2cc(C)c(C(=O)O)c(O)c2)c(O)c1` [compound 1, evernic acid], in the data set on P. berghei LS parasites, the “effect on size of LS parasites (IFA)” value was “no effect”. Further, the IC50 on MtFabI is greater than 200 µM. Also, in data set [1], the “liver phenotype (Figure 3)” value is given as “reduced liver size”.

For `COC(=O)/C(=C1/OC(=O)C(c2ccccc2)=C1O)c1ccccc1` [compound 2, vulpic acid], the “effect on size of LS parasites (IFA)” value in the data set with P. berghei LS parasites is recorded as “decrease in the size of parasites”. Besides, at MtFabI, the IC50 is greater than 200 µM. In addition, in data set [1], the “liver phenotype (Figure 3)” value is “enlarged liver”.

In the case of `COc1cc(C(=O)O)c2c(c1C)OC(=O)c1c(C)cc(O)c(C=O)c1O2` [compound 3, psoromic acid], the “effect on size of LS parasites (IFA)” value with P. berghei LS parasites is recorded as “no effect”. The compound further displayed an IC50 against MtFabI greater than 200 µM.

For `CC(=O)C1=C(O)C=C2Oc3c(C(C)=O)c(O)c(C)c(O)c3[C@@]2(C)C1=O` [compound 4, (+)-usnic acid], the “effect on size of LS parasites (IFA)” value with P. berghei LS parasites is listed as “decrease in the size of parasites”. Further, the “liver phenotype (Figure 3)” value in data set [1] is “liver with normal shape and size”. In data set [1] (highest concentrations tested, up to and including MTC), the “hepatotoxicity in zebrafish larvae” value is “no hepatotoxicity was observed”.

Take `COc1cc(NC(C)CCCN)c2ncccc2c1` (stereo not drawn) [primaquine]: the IC50 in the data set with BS of Plasmodium is 1.4 to 3.3 µM.

The IC50 is the midpoint of a concentration-inhibition curve.
